The text below walks through data of patent US4143055A, “2,4,6-Trisubstituted-2,3-dihydro-benzofuran derivatives” (Gruppo Lepetit S.p.A., priority 1978, dated 1979).

A short description of series [1]: Acute oral toxicity in rats (LD50, Lichtfield and Wilcoxon). Particulars: rat, in vivo, rats p.o. (table). The procedure:
The toxicities were determined according to Lichtfield and Wilcoxon, Journ. Pharm. Expt. Ther., 96, 99, 1949.

Series [2] concerns carrageenin induced edema. Nature of the series: Carrageenin induced edema in the rat paw. It counts as in vivo. Particulars: dosage around 1/5 of its LD50. The procedure:
(§1) The antiinflammatory activity was ascertained by means of several testing methods; in one, the ability of the compounds of the invention to reduce the edema induced in the rat paw by injection of carrageenin was evaluated and the test was performed according to the methodology described by C. A. Winter et al. in Proc. Soc. Exptl. Biol. Med. 111, 544, (1962). In another it was investigated the reduction by the test compounds of the weight of the granuloma formed on a cotton pellet implanted subcutaneously in a rat, following the method described by Meier et al. in Experientia 6, 469, (1950).
(§2) Representative experiments have shown that the compounds of Example 11, namely 2,3-dihydro-6-methoxy-N,2-dimethyl-4-benzofuranamine causes a reduction of the carrageenin induced edema of around 70 percent over the controls even when it is administered at an absolutely safe dosage i.e., around 1/5 of its LD50. In the granuloma cotton pellet test the same compound at the same dosage reduces the weight of the granuloma of more than 40 percent again over the controls.
(In general: The carrageenan paw model is a standard test of acute inflammation.)

Series [3] has as its system granuloma formed on a cotton pellet implanted subcutaneously. The series is described as follows: Granuloma cotton pellet test. It counts as in vivo. The settings on record: rat; same dosage, around 1/5 of its LD50. The procedure:
as §1, §2

Series [4] deals with adjuvant induced arthritis. The series is described as follows: Adjuvant induced arthritis test in rats. It counts as in vivo. Particulars: for % reduction of the volume of the hind paws over the controls: rats p.o., Dose 200 mg/kg. The text has this:
However, the most important pharmacological aspect of the compounds of the present invention is that they are effective also in the adjuvant induced arthritis test in rats. Said test is absolutely meaningful in that adjuvant arthritis is one of the best pharmacological parameters with which a pharmacologist can investigate compounds as to their possible antinflammatory activity, owing to the parallelism of effects existing between it and some articulation diseases observed in humans (see Pearson, C. M., Arthritis and allied conditions, page 119, Lea and Febiger Publ., 1967 and Pearson, C. M., J. Chronic Diseases, 16, 863, 1963).
The adjuvant induced arthritis test was performed as described by B. B. Newbould in Brit. Jour. Pharmacol., 21, 127, (1963). The measure of effectiveness of the compounds in this test is given by their ability in reducing the volume of the hind paws of the laboratory animals. […] The obtained results, which are summarized in the following table, were obtained by testing the compounds at a dosage corresponding to 1/5 of their LD50.

One may read the LD50 as the dose at which mortality reaches 50%. A low value points to a more toxic substance. Turning to `CNc1cc(OC)cc2c1CC(C)O2` (stereo not drawn) [Example 11, 2,3-dihydro-6-methoxy-N,2-dimethyl-4-benzofuranamine], the 50% lethal dose (LD50) in series [1] was determined as 2800 mg/kg. Moreover, in series [2], the “reduction of the carrageenin induced edema over the controls” value was “around 70%”. For the same compound, in series [3], the “reduction of the weight of the granuloma over the controls” value is on record as “more than 40%”. In addition, the “% reduction of the volume of the hind paws over the controls” value in series [4] is recorded as 36%. Besides, the “activity in the adjuvant induced arthritis test compared with acetylsalicylic acid” value in series [4] (rats, dosage corresponding to 1/5 of their LD50) was “significantly more active”.

Consider `CC(=O)Oc1ccccc1C(=O)O` [acetylsalicylic acid, reference compound], for which, in series [4], the “% reduction of the volume of the hind paws over the controls” value was found to be 25%.
